“Also recorded” adds a separate entry of the source.
Key:
[1] = test system: influenza H3N2 strain IVR-165 (A/Victoria/361/2011); assay type: cell-based
MDCK cells = experiment: Cell viability, VI-CELL trypan blue exclusion; assay type: cell-based
Method: Cell viability assays were performed using MDCK cells treated with 1 uM sulphonamide or DMSO control. Cell viability was monitored over time up to 60 hrs using a VI-CELL machine (Beckman Coulter)(cell viability measured based on trypan blue exclusion). The sulphonamide analog used herein is not a marketed drug, therefore toxicity was conducted to identify cell viability over the course of incubation at the highest tested concentration of 10 μM and 60 hours of contact. […] At least 91% viability is detected in cells treated with sulphonamide.

[2] = test system: virus-infected host cell culture; assay type: cell-based, influenza; conditions: versus control without compound
[3] = test system: B/Massachusetts/2/2012 (low-expressing); experiment: ambr15 mini-bioreactor and shake flask comparison, B strain; assay type: cell-based, influenza B; conditions: CDM and DM134 media, shake flasks and 15 ml bioreactors
Method: The two lead compounds were further tested in the commercially available small-scale bioreactor system, ambr15™ (TAP Biosystems). The ambr15 system mimics the characteristics of classical bioreactors at microscale (10-15 ml), controlled by an automated workstation, which enables the rapid evaluation of multiple bioreactor cultures at microscale.
To test both lead compounds were tested side-by-side under controlled conditions, with two infection media formulations (DM134 and CDM) and two flu strains, A/Victoria/361/2011 (IVR-165) (high-expressing) and B/Massachusetts/2/2012 (low-expressing). The infection parameters used in the experiment were as follows: seeding density was 1.0×10^6 cells/ml or 2.5×10^6 cells/mL; pH was 7.1+/−0.02 (pH control by dual control with 0.05N NaOH and CO2 gas); DO was 50% (range 50-80%), controlled by O2 gas; agitation was 1000 rpm (local control); temperature was 34.0° C., locally monitored with bioreactor controller probe; vessel type was Spargeless, extended temperature vessels; and, aeration rate during run was 1 mL/min.
The quantification of HA was carried out by ELISA then was subsequently confirmed by HPLC. It was also shown that AFZ077 was able to boost HA yield in the DM134 medium with both low (1×10^6 per mL) and high (2.5×10^6 per mL) infection cell densities in this system. […] Overall, greater enhancement effect seen for low-expressing strains. […]

[4] = test system: A/Victoria/361/2011 (IVR-165) (high-expressing); experiment: ambr15 mini-bioreactor and shake flask comparison, A strain; assay type: cell-based, influenza A H3N2; conditions: CDM and DM134 media, shake flasks and 15 ml bioreactors; listed as AFZ077
A and B strains = assay type: cell-based, influenza; conditions: DM134 medium, 2.5×10^6 per mL
B/Massachusetts/02/2012 = experiment: Ambr 250 mL bioreactor, B strain; assay type: cell-based, influenza B; conditions: any of the doses tested, ambr250
Method: FIG. 13 provides a graph showing HA yields in the B strain tested with BYF589 at concentrations as indicated.
FIG. 14 provides a graph showing HA yields in the B strain tested with AFZ077 at concentrations as indicated.
The results were confirmed using 3 different viruses (a high-, medium-, and poor-expressing strains). […] To confirm these findings in a larger-scale system, TD Ambr™ 250 mL bioreactors were employed. Both of the lead compounds (as well as DMSO alone as negative control, and, no compound/no DMSO as double-negative control) were tested with a high- and low-expressing strains to determine if the observed enhancement in the small-scale cultures can be reproduced in a larger-scale system. The following parameters were used: Spent DM134:Fresh PFM (1:3); Virus Strains were A/Victoria/361/2011 (IVR-165) and B/Massachusetts/02/2012; MOI was 10^−5 for A/Victoria IVR-165 and 10^−4 for B/Massachusetts; ICD: 2.0e6-3.0e6 cells/mL; N-1 Process: 1B (no Medium Exchange); and, Harvest Time was 65-72 hours post-infection. HA yields were measured by two methods: RP-HPLC and HA-ELISA. […] Note that the error bars represent one standard deviation from the mean, to illustrate variability of the HA-ELISA assay between assay repeats.

5HT7 receptor = biological target: T1, 5HT7 receptor (Canis lupus familiaris, UniProt A0A8I3S709); experiment: Dependence of HA enhancement on 5HT7 receptor activity; assay type: cell-based; conditions: B/Mass in DM134 media, 65 hrs HA yield by ELISA
T1 construct: endogenous in cells; host or cells: MDCK 33016PF suspension cells (inferred)
T1 sequence (A0A8I3S709 entry or part of it): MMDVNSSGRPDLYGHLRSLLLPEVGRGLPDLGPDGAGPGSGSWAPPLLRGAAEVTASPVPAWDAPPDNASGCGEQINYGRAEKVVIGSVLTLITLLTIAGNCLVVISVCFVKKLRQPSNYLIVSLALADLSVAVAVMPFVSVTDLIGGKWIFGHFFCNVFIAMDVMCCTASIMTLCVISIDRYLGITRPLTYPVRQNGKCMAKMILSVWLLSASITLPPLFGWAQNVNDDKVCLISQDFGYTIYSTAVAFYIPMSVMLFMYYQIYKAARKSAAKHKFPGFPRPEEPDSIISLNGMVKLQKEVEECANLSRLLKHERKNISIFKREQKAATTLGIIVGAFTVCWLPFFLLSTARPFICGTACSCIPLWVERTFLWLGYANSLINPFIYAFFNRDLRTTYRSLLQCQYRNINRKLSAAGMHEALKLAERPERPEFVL
Text: FIG. 15 provides a graph showing that Flu HA yield enhancement by AFZ077 is dependent on decreasing activity of the 5HT7 receptor. Flu B strain (B/Mass) in DM134 media; 65 hrs HA yield by ELISA (μg/ml).
Studies based on Formula 8 (e.g., Compound E) were expanded to identify potential compounds that may share certain mechanisms of action, as summarized in Table 5 below.

[5] = 0 and 60 hr, mass spec
cellular cholesterol = experiment: Total cellular cholesterol (Amplex Red); assay type: cell-based
Method: Possible effects of BYF589 as well as various enzyme inhibitors of the pathway on the cell viability and total cellular cholesterol levels were examined. Tested samples included DMSO, BYF589 (1 μM), MEV (100 μM), FTI (0.5 μM), ZA (1 μM) and GTI (0.5 μM).
Free cholesterol is oxidized by cholesterol oxidase to form a cholesterol ketone and H2O2, which then reacts with Amplex Red+HRP to produce the fluorescent product resorufin.

[6] = test system: influenza in MDCK 33016PF cells; assay type: cell-based; conditions: MEV plus BYF
MDCK 33016PF cells = conditions: 24 hours; BYF589 1 μM, MEV 100 μM, FTI 0.5 μM, ZA 1 μM, GTI 0.5 μM
influenza H3N2 virus = conditions: MOI of 10^−3, 24 hours post infection; cited from earlier work
Subtype A/Texas X223A = assay type: cell-based, influenza A; conditions: 0.05 μM
Subtype AH3N2 = experiment: SAR study of analogues, HA-ELISA; conditions: 0.05 μM, FIG. 7

## Cc1cccc(S(=O)(=O)N2CCC[C@@H]2CCN2CCC(C)CC2)c1 [Compound E]
[1]
  HA yield before the decrease (earlier addition): about 20 μg/ml
  HA yield, compound added 6 hours post infection: about 5 μg/ml
MDCK cells; monitored up to 60 hrs
  impact on cell viability: Neither sulphonamide nor pitavastatin had a negative impact on cell viability
MDCK cells; up to 10 μM and 60 hours of contact
  cell viability: At least 91%
[2]
  increase in HA yield at 24 hours, compound added at T=2, 4: approximately 4 fold
  increase in HA yield at 24 hours, compound added at T=6: no significant increase
  increase in HA yield at 24 hours, compound added at time of infection (T=0): approximately 4 fold
[3]
  HA yield enhancement, low-expressing B strain: boosts HA yield
[4]
  HA yield enhancement, high-expressing A strain: much greater enhancement in HA yield; also recorded: Only AFZ077 enhanced yield
A and B strains
  HA yield over original yields, high ICD format with AFZ treatment: ~4 fold
B/Massachusetts/02/2012
  increase in HA yield over the controls: no significant increase in HA yield
5HT7 receptor
  HA enhancing effect in presence of serotonin (5HT): can be abrogated by adding serotonin (5HT)
[5]
  loss of compound in media or media+MDCK cells: No loss of compounds was observed

## CC(O)(CCO)CC(=O)O (centres unmarked) [MEV, Mevalonate]
Cellular cholesterol; MEV plus BYF
  cellular cholesterol levels, in combination with BYF: does not replenish cellular cholesterol levels
Cellular cholesterol; normalized to DMSO
  cellular cholesterol levels, compound alone: no effect on cellular cholesterol levels
[6]
  HA yield enhancement, in combination with BYF: reduces HA yield enhancement
MDCK 33016PF cells
  effect on cell viability: no negative effect on cell viability

## COc1ccc(C2=N[C@@H](c3ccc(Cl)cc3)[C@@H](c3ccc(Cl)cc3)N2C(=O)N2CCNC(=O)C2)c(OC(C)C)c1 [Nutlin-3]
Influenza H3N2 virus
  copies of viral genome in the supernatant compared with control: up to nineteen times more copies of viral genome

## CC(C)c1nc(N(C)S(C)(=O)=O)nc(-c2ccc(F)cc2)c1/C=C/[C@@H](O)C[C@@H](O)CC(=O)O [Rosuvastatin, bis[(E)-7-[4-(4-fluorophenyl)-6-isopropyl-2-[methyl(methylsulfonyl)amino]pyrimidin-5-yl](3R,5S)-3,5-dihydroxyhept-6-enoic acid]]
Subtype A/Texas X223A
  HA yield compared with other commercially available statins: did not produce the yield potential of comparative statins

## CC(C)n1c(/C=C/[C@@H](O)C[C@@H](O)CC(=O)O)c(-c2ccc(F)cc2)c2ccccc21 [fluvastatin, (3R, 5S, 6E)-7-[3-(4-fluorophenyl)-1-(propan-2-yl)-1H-indol-2-yl]-3,4-dihydroxyhept-6-enoic acid]
Subtype AH3N2
  HA yield compared with pitavastatin: performed even better than pitavastatin
